The results in this text go back to PubChem BioAssay AID248 (DTP/NCI, 2004).

This assay has as its system L1210 leukemia ip in BDF1 mice, survival T/C. Kind of assay: NCI In Vivo Anticancer Drug Screen. Data for tumor model L1210 Leukemia (intraperitoneal) in B6D2F1 (BDF1) mice. The note with it: endpoint: mean survival time, higher = longer survival. Put shortly:
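Tumor was transplanted into mice, which were then dosed with test compound or vehicle alone. Survival was recorded for each group, and the treated figure was expressed relative to the control figure.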

[1] abbreviates: dose: 100.0 mg/kg/injection, schedule: Q01DX009 (ip), vehicle: saline.
The mark [2] stands for this setting: dose: 100.0 mg/kg/injection, schedule: Q04DX003 (ip), vehicle: saline.
Setting [3] is: dose: 200.0 mg/kg/injection, schedule: Q01DX009 (ip), vehicle: saline.
The mark [4] stands for this setting: dose: 200.0 mg/kg/injection, schedule: Q04DX003 (ip), vehicle: saline.
[5] abbreviates: dose: 400.0 mg/kg/injection, schedule: Q01DX009 (ip), vehicle: saline.
Setting [6] is: dose: 400.0 mg/kg/injection, schedule: Q04DX003 (ip), vehicle: saline.
Where [7] appears, read: dose: 100.0 mg/kg/injection, schedule: Q04DX003 (ip), vehicle: saline with Tween-80.
Where [8] appears, read: dose: 200.0 mg/kg/injection, schedule: Q04DX003 (ip), vehicle: saline with Tween-80.
[9] abbreviates: dose: 100.0 mg/kg/injection, schedule: Q01DX001 (ip), vehicle: Klucel (hydroxypropylcellulose) (HPC).
Setting [10] is: dose: 200.0 mg/kg/injection, schedule: Q01DX001 (ip), vehicle: Klucel (hydroxypropylcellulose) (HPC).
The mark [11] stands for this setting: dose: 400.0 mg/kg/injection, schedule: Q01DX001 (ip), vehicle: Klucel (hydroxypropylcellulose) (HPC).

SMILES strings stand for the structures. Toxic doses and inconclusive results are not listed.

With `Clc1ccc(C2c3ccccc3C[n+]3ccccc32)cc1` (stereo unspecified), the T/C by setting is: (dose: 6.25 mg/kg/injection, schedule: Q01DX009 (ip), vehicle: Klucel (hydroxypropylcellulose) (HPC)) 102 % of control; (dose: 12.5 mg/kg/injection, schedule: Q01DX009 (ip), vehicle: Klucel (hydroxypropylcellulose) (HPC)) 104 % of control; (dose: 25.0 mg/kg/injection, schedule: Q01DX009 (ip), vehicle: Klucel (hydroxypropylcellulose) (HPC)) 109 % of control; (dose: 35.0 mg/kg/injection, schedule: Q01DX009 (ip), vehicle: Klucel (hydroxypropylcellulose) (HPC)) 112 % of control.
For `COCCCNS(=O)(=O)c1ncnc2nc[nH]c12`, the T/C (dose: 10.0 mg/kg/injection, schedule: Q01DX Z (ip), vehicle: carboxymethylcellulose (CMC)) is 105 % of control; the T/C (dose: 20.0 mg/kg/injection, schedule: Q01DX Z (ip), vehicle: carboxymethylcellulose (CMC)) was 103 % of control; the T/C (dose: 25.0 mg/kg/injection, schedule: Q01DX Z (ip), vehicle: carboxymethylcellulose (CMC)) was 105 % of control; the T/C (dose: 40.0 mg/kg/injection, schedule: Q01DX Z (ip), vehicle: carboxymethylcellulose (CMC)) was 103 % of control; the T/C (dose: 50.0 mg/kg/injection, schedule: Q01DX Z (ip), vehicle: carboxymethylcellulose (CMC)) was 110 % of control; the T/C (dose: 80.0 mg/kg/injection, schedule: Q01DX Z (ip), vehicle: carboxymethylcellulose (CMC)) is 93 % of control. Moreover, the T/C reads like this: (dose: 100.0 mg/kg/injection, schedule: Q01DX Z (ip), vehicle: carboxymethylcellulose (CMC)) 117 % of control; (dose: 125.0 mg/kg/injection, schedule: Q01DX Z (ip), vehicle: carboxymethylcellulose (CMC)) 88 % of control; (dose: 250.0 mg/kg/injection, schedule: Q01DX Z (ip), vehicle: carboxymethylcellulose (CMC)) 87 % of control.
Regarding `O=C(O)CN1C(=O)C2CC=CCC2C1=O` (stereo unspecified), the T/C under setting [1] is 91 % of control; the T/C under setting [2] was 96 % of control; the T/C under setting [3] was 96 % of control; the T/C under setting [4] is 93 % of control; the T/C under setting [5] was 86 % of control; the T/C under setting [6] was 91 % of control.
Consider `CCCCOc1ccc(O)cc1`, for which the T/C by setting is: (dose: 100.0 mg/kg/injection, schedule: Q04DX003 (ip), vehicle: other) 117 % of control; (dose: 200.0 mg/kg/injection, schedule: Q04DX003 (ip), vehicle: other) 100 % of control; (dose: 400.0 mg/kg/injection, schedule: Q04DX003 (ip), vehicle: other) 108 % of control.
For `COc1cc(/C=N/NC(=O)C(=O)N/N=C/c2cc(OC)c(OC)c(OC)c2)cc(OC)c1OC`, the T/C (dose: 75.0 mg/kg/injection, schedule: Q01DX001 (ip), vehicle: other) was 94 % of control; the T/C (dose: 150.0 mg/kg/injection, schedule: Q01DX001 (ip), vehicle: other) is 90 % of control; the T/C (dose: 300.0 mg/kg/injection, schedule: Q01DX001 (ip), vehicle: other) is 89 % of control.
For the molecule `CCc1cc2c(cc1C(=O)/C=C\c1ccco1)C(C)(C)CCC2(C)C`, the T/C was 103 % of control (dose: 100.0 mg/kg/injection, schedule: Q01DX009 (ip), vehicle: saline with Tween-80); 96 % of control (dose: 100.0 mg/kg/injection, schedule: Q04DX002 (ip), vehicle: saline with Tween-80); 95 % of control (dose: 200.0 mg/kg/injection, schedule: Q01DX009 (ip), vehicle: saline with Tween-80); 93 % of control (dose: 200.0 mg/kg/injection, schedule: Q04DX002 (ip), vehicle: saline with Tween-80); 106 % of control (dose: 400.0 mg/kg/injection, schedule: Q01DX009 (ip), vehicle: saline with Tween-80); 93 % of control (dose: 400.0 mg/kg/injection, schedule: Q04DX002 (ip), vehicle: saline with Tween-80).
As for `Cc1cnc(C(N)=O)c(=O)[nH]1`, the T/C was 96 % of control under setting [1]; 100 % of control under setting [2]; 96 % of control under setting [3]; 100 % of control under setting [4]; 98 % of control under setting [5]; 97 % of control under setting [6].
With `C[n+]1ccn(Cc2ccc([N+](=O)[O-])cc2)c1`, the T/C is, setting by setting: under setting [7], 171 % of control; under setting [8], 90 % of control.
On to `CS(=O)C(Cl)C(O)c1ccccc1` (stereo unspecified), for which the T/C was 117 % of control (dose: 100.0 mg/kg/injection, schedule: Q03DX002 (ip), vehicle: saline with Tween-80) and 110 % of control (dose: 400.0 mg/kg/injection, schedule: Q03DX002 (ip), vehicle: saline with Tween-80).
Turning to `COc1cc(NC(C)CCCN2C(=O)c3ccccc3C2=O)c2nc(-c3ccc(Cl)cc3)ccc2c1` (stereo unspecified), the T/C runs as follows: (dose: 50.0 mg/kg/injection, schedule: Q04DX003 (ip), vehicle: saline) 90 % of control; (dose: 100.0 mg/kg/injection, schedule: Q01DX009 (ip), vehicle: other) 94 % of control; under setting [2], 92 % of control; (dose: 200.0 mg/kg/injection, schedule: Q01DX009 (ip), vehicle: other) 94 % of control; under setting [4], 90 % of control; (dose: 400.0 mg/kg/injection, schedule: Q01DX009 (ip), vehicle: other) 101 % of control. Moreover, the T/C under setting [6] was 87 % of control.
With `CC(=O)NC1CCC2CCCCC2C1` (stereo unspecified), the T/C is 97 % of control under setting [9]; 103 % of control (dose: 100.0 mg/kg/injection, schedule: Q01DX009 (ip), vehicle: Klucel (hydroxypropylcellulose) (HPC)); 97 % of control (dose: 100.0 mg/kg/injection, schedule: Q04DX003 (ip), vehicle: Klucel (hydroxypropylcellulose) (HPC)); 101 % of control under setting [10]; 95 % of control (dose: 200.0 mg/kg/injection, schedule: Q01DX009 (ip), vehicle: Klucel (hydroxypropylcellulose) (HPC)); 99 % of control (dose: 200.0 mg/kg/injection, schedule: Q04DX003 (ip), vehicle: Klucel (hydroxypropylcellulose) (HPC)). Besides, the T/C is, setting by setting: under setting [11], 101 % of control; (dose: 400.0 mg/kg/injection, schedule: Q01DX009 (ip), vehicle: Klucel (hydroxypropylcellulose) (HPC)) 98 % of control; (dose: 400.0 mg/kg/injection, schedule: Q04DX003 (ip), vehicle: Klucel (hydroxypropylcellulose) (HPC)) 96 % of control.
On to `Clc1ccc(SCNCc2ccccc2)cc1`, for which the T/C is, setting by setting: (dose: 100.0 mg/kg/injection, schedule: Q01DX001 (ip), vehicle: saline) 100 % of control; (dose: 200.0 mg/kg/injection, schedule: Q01DX001 (ip), vehicle: saline) 94 % of control; (dose: 400.0 mg/kg/injection, schedule: Q01DX001 (ip), vehicle: saline) 96 % of control.
On to `O=C1CCOP(=O)(NCCCl)N1CCCl` (stereo unspecified), for which the T/C is 115 % of control (dose: 100.0 mg/kg/injection, schedule: Q04DX002 (ip), vehicle: saline) and 175 % of control (dose: 400.0 mg/kg/injection, schedule: Q04DX002 (ip), vehicle: saline).
On to `CCOP(OCC)Oc1ccccc1`, for which the T/C is 92 % of control under setting [7]; 109 % of control under setting [8]; 100 % of control (dose: 400.0 mg/kg/injection, schedule: Q04DX003 (ip), vehicle: saline with Tween-80).
Turning to `CC(=O)OCCC/C(=C\c1ccc(Br)cc1)[N+](=O)[O-]`, the T/C (dose: 100.0 mg/kg/injection, schedule: Q01DX001 (ip), vehicle: carboxymethylcellulose (CMC)) was 97 % of control and the T/C (dose: 200.0 mg/kg/injection, schedule: Q01DX001 (ip), vehicle: carboxymethylcellulose (CMC)) was 97 % of control.
Turning to `N#CCCOP(=O)(O)O`, the T/C is 101 % of control under setting [9], 98 % of control under setting [10] and 88 % of control under setting [11].
In the case of `C=CCCCCCCCCC(=O)NCc1ccncc1`, the T/C under setting [7] is 90 % of control.
